Numbered stars: 1 amine (or outer) side, 2 acyl side, 3 side chain; on linkers, the order of the positions; unused ones are H or OH. Square brackets hold non-standard residues; d marks the D form. Ends that are not written are not given here. Peptide text beside a SMILES is read from it. X1 = CC(C)C[C@H](C(=O)[*:2])[C@H](O)C[C@H]1CCCN1[*:1]; d(aIle) = CC[C@H](C)[C@@H](N)C(=O)O; aIle = CC[C@@H](C)[C@H](N)C(=O)O
How the values were obtained:
[1] = system: recombinant HTLV-1 protease; experiment: Cleavage of allo-Ile-containing substrates by recombinant HTLV-1 protease, analytical HPLC; type: biochemical, human T-cell leukemia virus type 1 (HTLV-1); conditions: decrease in substrate by analytical HPLC, Figure 3
Experimental: Each synthesized substrate (4–6) was then treated with the recombinant HTLV-1 protease, and the decrease in each substrate level was monitored using analytical HPLC [15].
Figure 3 Cleavage reaction of the substrates containing allo-Ile residues by the HTLV-1 protease: blue, original substrate; orange, substrate 4; gray, substrate 5; yellow, substrate 6.

[2] = biological target: T1, recombinant HTLV-1 protease (1-116, L40I) (Human T-cell leukemia virus 1, UniProt P10274, L489I); experiment: biochemical; type: biochemical, human T-cell leukemia virus type 1 (HTLV-1); conditions: for inhibitory activity relative to RI-inhibitor 3: effect of D-allo-Ile replacement, RI-inhibitor 3 as reference, recombinant protease
T1 construct: examined using the recombinant HTLV-1 protease (1-116, L40I) and a substrate dodecapeptide; made in house; host or cells: E. coli BL21(DE3)
T1 sequence (P10274 450-565 L489I): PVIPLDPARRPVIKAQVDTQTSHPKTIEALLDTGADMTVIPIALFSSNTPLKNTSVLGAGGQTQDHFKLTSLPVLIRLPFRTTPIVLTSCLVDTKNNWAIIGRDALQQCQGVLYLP
Experimental: The reaction mixture was directly analyzed by analytical HPLC with a C18 reversed-phase column. Each IC50 value of the RI-type inhibitor was obtained from the sigmoidal dose–response curve (Figure S6) calculated from the decrease in substrate concentration.
The reaction mixture was analyzed on a Cosmosil 5C18-ARII column (4.6 × 150 mm), employing a linear gradient of CH3CN (10–40%, 30 min) in aqueous 0.1% TFA. Each IC50 value was obtained from a sigmoidal dose–response curve obtained from the decrease in the substrate in the reaction mixture (Figure S3). Each experiment was repeated three times.

HTLV-1 protease = conditions: ref [20]; cited from earlier work

Question: For “substrate 6: substrate 6 containing two allo-Ile residues at both sites (6,9-allo-Ile) (KGPPV[aIle]LP[aIle]QAP-NH2; N-terminus assumed; SMILES CC[C@@H](C)[C@H](NC(=O)[C@@H](NC(=O)[C@@H]1CCCN1C(=O)[C@@H]1CCCN1C(=O)CNC(=O)[C@@H](N)CCCCN)C(C)C)C(=O)N[C@@H](CC(C)C)C(=O)N1CCC[C@H]1C(=O)N[C@H](C(=O)N[C@@H](CCC(N)=O)C(=O)N[C@@H](C)C(=O)N1CCC[C@H]1C(N)=O)[C@H](C)CC)”, which “cleavage rate compared with original substrate, in words” value [1] is on record?
Answer: clearly showed a lower cleavage rate than the original substrate

Question: For “substrate 5: substrate 5 containing an allo-Ile residue at the non-prime site (6-allo-Ile) (KGPPV[aIle]LPIQAP-NH2; N-terminus assumed; SMILES CC[C@@H](C)[C@H](NC(=O)[C@@H](NC(=O)[C@@H]1CCCN1C(=O)[C@@H]1CCCN1C(=O)CNC(=O)[C@@H](N)CCCCN)C(C)C)C(=O)N[C@@H](CC(C)C)C(=O)N1CCC[C@H]1C(=O)N[C@H](C(=O)N[C@@H](CCC(N)=O)C(=O)N[C@@H](C)C(=O)N1CCC[C@H]1C(N)=O)[C@@H](C)CC)”, which “cleavage rate compared with original substrate, in words” value [1] is on record?
Answer: clearly showed a lower cleavage rate than the original substrate

Question: With CC[C@@H](C)[C@@H](NC(=O)[C@@H](CC(C)C)[C@H](O)C[C@H]1CCCN1C(=O)[C@H](NC(C)=O)[C@H](C)CC)C(=O)N[C@@H](C(=O)N1CCC[C@@H]1C(=O)N1CCC[C@@H]1C(N)=O)C(C)C [RI-inhibitor 3] (Ac-[dI][X1][dI][dV][dP][dP]-NH2) as the compound, how does the IC50 [2] read?
Answer: 240 µM

Question: What does the source list for CC[C@@H](C)[C@@H](NC(C)=O)C(=O)N1CCC[C@@H]1C[C@@H](O)[C@H](CC(C)C)C(=O)N[C@@H](C(=O)N[C@@H](C(=O)N1CCC[C@@H]1C(=O)N1CCC[C@@H]1C(N)=O)C(C)C)[C@@H](C)CC [RI-inhibitor 9] (Ac-[dI][X1][d(aIle)][dV][dP][dP]-NH2)?
Answer: IC50 [2]: 130 µM; inhibitory activity relative to RI-inhibitor 3 [2]: doubled the inhibitory activity

Question: For CC[C@@H](C)[C@@H](NC(=O)[C@@H](CC(C)C)[C@H](O)C[C@H]1CCCN1C(=O)[C@H](NC(C)=O)[C@@H](C)CC)C(=O)N[C@@H](C(=O)N1CCC[C@@H]1C(=O)N1CCC[C@@H]1C(N)=O)C(C)C [RI-inhibitor 8] (Ac-[d(aIle)][X1][dI][dV][dP][dP]-NH2), which IC50 [2] is on record?
Answer: 110 µM

Question: And the “inhibitory activity relative to RI-inhibitor 3” value [2]?
Answer: doubled the inhibitory activity

Question: For CC[C@H](C)[C@@H](NC(=O)[C@@H](CC(C)C)[C@H](O)C[C@H]1CCCN1C(=O)[C@H](NC(C)=O)[C@@H](C)CC)C(=O)N[C@@H](C(=O)N1CCC[C@@H]1C(=O)N1CCC[C@@H]1C(N)=O)C(C)C [RI-inhibitor 10] (Ac-[d(aIle)][X1][d(aIle)][dV][dP][dP]-NH2), which IC50 [2] is on record?
Answer: 85 µM

Question: What about the “inhibitory activity relative to RI-inhibitor 3” value [2] of the same compound?
Answer: tripled the inhibitory activity

Question: With C[C@@H](NC(=O)[C@H]1N(C(=O)[C@@H](O)[C@H](Cc2ccccc2)NC(=O)[C@@H](NC(=O)[C@@H](NC(=O)CN2CCOCC2)c2ccccc2)C(C)(C)C)CSC1(C)C)C(C)(C)C [KNI-10729] as the compound, how does the “inhibition at 50 nM” value (HTLV-1 protease) read?
Answer: 79%

Question: For “substrate 4: substrate 4 containing an allo-Ile residue at the prime site (9-allo-Ile) (KGPPVILP[aIle]QAP-NH2; N-terminus assumed; SMILES CC[C@@H](C)[C@H](NC(=O)[C@@H]1CCCN1C(=O)[C@H](CC(C)C)NC(=O)[C@@H](NC(=O)[C@@H](NC(=O)[C@@H]1CCCN1C(=O)[C@@H]1CCCN1C(=O)CNC(=O)[C@@H](N)CCCCN)C(C)C)[C@@H](C)CC)C(=O)N[C@@H](CCC(N)=O)C(=O)N[C@@H](C)C(=O)N1CCC[C@H]1C(N)=O)”, which “cleavage rate compared with original substrate, in words” value [1] is on record?
Answer: cleaved at a slightly lower rate than the original substrate

From PMC8911550, “The Effects of Side-Chain Configurations of a Retro–Inverso-Type Inhibitor on the Human T-Cell Leukemia Virus (HTLV)-1 Protease” (Molecules, 2022)
